This note sets out measurements from patent US11186566B2, “Modulator of cystic fibrosis transmembrane conductance regulator, pharmaceutical compositions, methods of treatment, and process for making the modulator” (Vertex Pharmaceuticals Incorporated, priority 2016, dated 2021).

One data set concerns the target F508del-CFTR (Homo sapiens (Human), UniProt P13569, DEL508-508). Nature of the data set: Membrane potential optical (fluorescent voltage sensing dye, FLIPR III) HTS assay for F508del-CFTR modulators. The class given is cell-based. The source says: Membrane Potential Optical Methods for Assaying Properties of F508del-CFTR Modulators
The assay utilizes fluorescent voltage sensing dyes to measure changes in membrane potential using a fluorescent plate reader (e.g., FLIPR III, Molecular Devices, Inc.) as a readout for increase in functional F508del in NIH 3T3 cells.
5A-A1. Identification of F508Del-CFTR Modulators
To identify modulators of F508del, a fluorescence based HTS assay format was developed. This HTS assay utilizes fluorescent voltage sensing dyes to measure changes in membrane potential on the FLIPR III as a measurement for increase in gating (conductance) of F508del NIH 3T3 cells.
(in mM) NaCl 160, KCl 4.5, CaCl2 2, MgCl2 1, HEPES 10, pH 7.4 with NaOH, Glucose 10.
Chloride salts in Bath Solution #1 (above) are substituted with gluconate salts.
NIH3T3 mouse fibroblasts stably expressing F508del are used for optical measurements of membrane potential. The cells are maintained at 37° C. in 5% CO2 and 90% humidity in Dulbecco's modified Eagle's medium supplemented with 2 mM glutamine, 10% fetal bovine serum, 1×NEAA, β-ME, 1×pen/strep, and 25 mM HEPES in 175 cm^2 culture flasks. For all optical assays, the cells were seeded at 12,000 cells/well in 384-well matrigel-coated plates and cultured for 18-24 hrs at 37° C. for the potentiator assay. For the correction assays, the cells are cultured at 37° C. with and without compounds for 18-24 hours.

Another data set has as its target human PXR (Homo sapiens (Human), UniProt O75469). The data set can be described thus: PXR assay (PXR mediated CYP3A4 induction, DPX-2 cell line). The class given is cell-based. Conditions: DPX-2 cells, 48 hours, 0.1 to 60 μM. The method, then:
5D. Experimental Protocol for PXR Assay
The propensity for PXR mediated CYP3A4 induction is assessed using the DPX-2 cell line in vitro. This cell line, which has been licensed from Puracyp Inc. was derived from HepG2 cells and has been stably transfected with genes encoding human PXR as well as a modified luciferase reporter linked to the CYP3A4 promoter region and related distal and proximal enhancers.
The assay is run in 384 well format and each test article is administered in 11 doses ranging from 0.1 to 60 μM. On day 1, DPX-2 cells which have previously been expanded in-house and cryopreserved are thawed and seeded in tissue culture plates. The following day, media is changed and cells are cultured in media containing test article, vehicle control or the positive control compound, the clinically validated CYP3A4 inducer rifampicin. Cells are cultured in the presence of test article for 48 hours and then cell viability is assessed using fluorescence based assay (Cell Titer-Fluor, Promega) with an EnVision Plate Reader (PerkinElmer). Subsequently, CYP3A4 transactivation, which is proportional to luciferase activity, is measured by reading luminescense using the Promega One-Glo reagent system using the same plate reader.
Data processing within the Genedata software package allows reporting of max fold induction compared to vehicle control, an EC50 value for CYP3A4 inducers and an 11 point-dose response curve.

Another data set in a line: Rat IV and PO PK studies. The class given is in vivo, male Sprague-Dawley rats. Conditions: male, Sprague-Dawley, plasma; for bioavailability / AUC: 3 mg/kg, oral; for bioavailability: read-out: Rat po % F; for clearance: intravenous, 3.0 mg/kg, read-out: Rat iv CL. On the procedure:
5C. Experimental Protocol for Rat IV and PO PK Studies
[…] […] Analyses of plasma and dose preparations were performed using LC/MS/MS.
Plasma concentration-time profiles of the tested compound in Sprague-Dawley rats at scheduled (nominal) sampling times were analyzed by noncompartmental pharmacokinetic methods using PK function within Watson LIMS software, Version 7.4.2 (Thermo Scientific Inc, Waltham, Mass.). AUC values were calculated using the linear trapezoidal rule.

The mark [1] stands for this setting: F508del NIH 3T3 cells, assay 5A-A1, read-out: CFTRdF508 EC50.
Where [2] appears, read: Table 9, read-out: CFTR dF508 EC50.

pEC50: −log10 of the molar value. Read-outs that look alike come from different tables or passages of the source.

Sequence of human PXR (O75469 whole entry): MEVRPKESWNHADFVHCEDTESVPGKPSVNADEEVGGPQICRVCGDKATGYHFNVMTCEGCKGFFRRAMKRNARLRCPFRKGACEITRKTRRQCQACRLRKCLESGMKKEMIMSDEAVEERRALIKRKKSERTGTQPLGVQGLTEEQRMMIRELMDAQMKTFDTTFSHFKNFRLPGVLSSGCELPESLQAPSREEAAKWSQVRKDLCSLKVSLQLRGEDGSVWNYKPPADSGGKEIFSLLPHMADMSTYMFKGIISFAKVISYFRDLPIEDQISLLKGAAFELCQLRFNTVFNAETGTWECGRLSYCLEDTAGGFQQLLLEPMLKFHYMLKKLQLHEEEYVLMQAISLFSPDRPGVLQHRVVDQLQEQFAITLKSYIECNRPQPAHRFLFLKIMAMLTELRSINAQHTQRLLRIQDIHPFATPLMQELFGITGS
Sequence of F508del-CFTR (P13569 other isoform, or with tags, fused parts or gaps del F508-F508): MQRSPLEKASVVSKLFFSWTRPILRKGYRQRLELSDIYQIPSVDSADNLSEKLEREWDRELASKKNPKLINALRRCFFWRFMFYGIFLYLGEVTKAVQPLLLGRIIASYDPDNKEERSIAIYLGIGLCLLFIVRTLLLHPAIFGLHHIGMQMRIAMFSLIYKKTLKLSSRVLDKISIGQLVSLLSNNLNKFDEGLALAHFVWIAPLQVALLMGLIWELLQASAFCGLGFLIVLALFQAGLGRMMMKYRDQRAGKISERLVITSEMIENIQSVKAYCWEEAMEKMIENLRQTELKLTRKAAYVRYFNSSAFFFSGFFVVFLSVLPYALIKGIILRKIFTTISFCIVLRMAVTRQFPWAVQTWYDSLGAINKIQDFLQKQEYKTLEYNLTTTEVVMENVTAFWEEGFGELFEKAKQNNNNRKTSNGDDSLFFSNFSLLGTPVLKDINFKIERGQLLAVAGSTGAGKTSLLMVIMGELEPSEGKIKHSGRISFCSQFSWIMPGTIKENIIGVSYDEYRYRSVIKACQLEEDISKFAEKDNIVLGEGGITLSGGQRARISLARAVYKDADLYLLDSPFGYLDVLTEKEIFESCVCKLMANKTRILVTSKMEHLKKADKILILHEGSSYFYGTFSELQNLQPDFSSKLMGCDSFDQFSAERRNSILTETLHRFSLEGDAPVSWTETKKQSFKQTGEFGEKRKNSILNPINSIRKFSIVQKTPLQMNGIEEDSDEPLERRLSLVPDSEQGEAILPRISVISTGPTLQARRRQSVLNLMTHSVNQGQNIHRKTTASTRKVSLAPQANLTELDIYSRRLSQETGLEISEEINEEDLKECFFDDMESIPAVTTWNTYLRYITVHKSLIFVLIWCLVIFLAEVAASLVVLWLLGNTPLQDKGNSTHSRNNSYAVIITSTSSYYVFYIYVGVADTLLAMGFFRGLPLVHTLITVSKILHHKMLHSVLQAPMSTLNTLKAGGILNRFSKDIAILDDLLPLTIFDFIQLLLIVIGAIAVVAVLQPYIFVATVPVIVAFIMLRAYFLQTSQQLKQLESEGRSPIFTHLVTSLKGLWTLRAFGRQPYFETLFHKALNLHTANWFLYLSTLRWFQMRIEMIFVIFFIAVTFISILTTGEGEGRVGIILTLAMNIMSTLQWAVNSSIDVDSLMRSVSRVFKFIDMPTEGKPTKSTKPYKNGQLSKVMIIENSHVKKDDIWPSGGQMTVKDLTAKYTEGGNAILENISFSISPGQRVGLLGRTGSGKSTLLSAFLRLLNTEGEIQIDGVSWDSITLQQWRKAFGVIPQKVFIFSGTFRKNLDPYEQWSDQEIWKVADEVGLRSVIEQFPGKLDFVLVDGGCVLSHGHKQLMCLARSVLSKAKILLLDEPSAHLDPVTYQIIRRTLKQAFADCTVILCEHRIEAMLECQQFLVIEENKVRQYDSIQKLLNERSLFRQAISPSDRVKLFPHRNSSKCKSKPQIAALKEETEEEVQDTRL

Take `Cc1cccc(S(=O)(=O)NC(=O)c2ccc(-n3ccc(OCC4(C(F)(F)F)CC4)n3)nc2N2C[C@@H](C)CC2(C)C)c1` [Comp. 28, N-(m-Tolylsulfonyl)-6-[3-[[1-(trifluoromethyl)cyclopropyl]methoxy]pyrazol-1-yl]-2-[(4S)-2,2,4-trimethylpyrrolidin-1-yl]pyridine-3-carboxamide]: the negative-log EC50 (pEC50) is more than 7.00 at F508del-CFTR (setting [1]) and 7.52 on F508del-CFTR (setting [2]). Besides, the “PXR Max Induction (% of rifampicin)” value on human PXR was 17 % of rifampicin.

Turning to `C[C@@H]1CN(c2nc(-n3ccc(OCC4C(C)(C)C4(C)C)n3)ccc2C(=O)NS(=O)(=O)c2ccc(O)cc2)C(C)(C)C1` [Comp. 33, N-(4-Hydroxyphenyl)sulfonyl-6-[3-[(2,2,3,3-tetramethylcyclopropyl)methoxy]pyrazol-1-yl]-2-[(4S)-2,2,4-trimethylpyrrolidin-1-yl]pyridine-3-carboxamide], the values for the pEC50 on F508del-CFTR (setting [1]) and at F508del-CFTR (setting [2]) were more than 7.00 and 7.10, respectively. For the same molecule, the “PXR Max Induction (% of rifampicin)” value at human PXR is reported as 0 % of rifampicin.

Consider `C[C@@H]1CN(c2nc(-n3ccc(COCC4(C(F)(F)F)CC4)n3)ccc2C(=O)NS(=O)(=O)c2ccccc2)C(C)(C)C1` [Comp. 37, N-(Benzenesulfonyl)-6-[3-[[1-(trifluoromethyl)cyclopropyl]methoxymethyl]pyrazol-1-yl]-2-[(4S)-2,2,4-trimethylpyrrolidin-1-yl]pyridine-3-carboxamide], for which the negative-log EC50 (pEC50) was more than 7.00 at F508del-CFTR (setting [1]) and 7.15 at F508del-CFTR (setting [2]). The “PXR Max Induction (% of rifampicin)” value at human PXR is 8 % of rifampicin.

Regarding `C[C@@H]1CN(c2nc(-n3ccc(O[C@H]4C[C@H]5CC[C@@H]4C5)n3)ccc2C(=O)NS(=O)(=O)c2ccccc2)C(C)(C)C1` [Comp. 39, N-(benzenesulfonyl)-6-[3-[(1R,2S,4S)-norbornan-2-yl]oxypyrazol-1-yl]-2-[(4S)-2,2,4-trimethylpyrrolidin-1-yl]pyridine-3-carboxamide], the pEC50 at F508del-CFTR (setting [1]) was more than 7.00; on F508del-CFTR (setting [2]), 7.15. Moreover, the “PXR Max Induction (% of rifampicin)” value at human PXR was 13 % of rifampicin.

On to `C[C@@H]1CN(c2nc(-n3ccc(OCC4C[C@@H]5CC[C@@H]4C5)n3)ccc2C(=O)NS(=O)(=O)c2ccccc2)C(C)(C)C1` (stereo partly drawn) [Comp. 40, N-(Benzenesulfonyl)-6-[3-[[(1R,4R)-norbornan-2-yl]methoxy]pyrazol-1-yl]-2-[(4S)-2,2,4-trimethylpyrrolidin-1-yl]pyridine-3-carboxamide], for which the negative-log EC50 (pEC50) on F508del-CFTR (setting [1]) was more than 7.00; on F508del-CFTR (setting [2]) it was 7.10. The “PXR Max Induction (% of rifampicin)” value at human PXR is listed as 2 % of rifampicin.

As to `C[C@@H]1CN(c2nc(-n3ccc(OCC(C4CC4)C4CC4)n3)ccc2C(=O)NS(=O)(=O)c2ccccc2)C(C)(C)C1` [Comp. 41, N-(Benzenesulfonyl)-6-[3-(2,2-dicyclopropylethoxy)pyrazol-1-yl]-2-[(4S)-2,2,4-trimethylpyrrolidin-1-yl]pyridine-3-carboxamide], in the data set “Rat IV and PO PK studies”, the bioavailability came out at 41%, the clearance amounted to 1.9 mL/min/kg and the exposure (AUC) came out at 6400 ng·h/mL.

Turning to `C[C@@H]1CN(c2nc(-n3ccc(OCCC(C4CC4)C4CC4)n3)ccc2C(=O)NS(=O)(=O)c2ccccc2)C(C)(C)C1` [Comp. 42, N-(Benzenesulfonyl)-6-[3-(3,3-dicyclopropylpropoxy)pyrazol-1-yl]-2-[(4S)-2,2,4-trimethylpyrrolidin-1-yl]pyridine-3-carboxamide], the pEC50 at F508del-CFTR (setting [1]) is more than 7.00. For the same molecule, the pEC50 at F508del-CFTR (setting [2]) is 7.30. Moreover, in the data set “Rat IV and PO PK studies”, the bioavailability amounted to 51%, the clearance is 5.4 mL/min/kg and the area under the curve (AUC) stood at 4400 ng·h/mL.

With `C[C@@H]1CN(c2nc(-n3ccc(OCC(C)(C)C)n3)ccc2C(=O)NS(=O)(=O)c2ccc[nH]c2=O)C(C)(C)C1` [Comp. C, reference compound], the “PXR Max Induction (% of rifampicin)” value at human PXR is recorded as 3 % of rifampicin.

As to `C[C@@H]1CN(c2nc(-n3ccc(OCC4CCC4)n3)ccc2C(=O)NS(=O)(=O)c2cccnc2N)C(C)(C)C1` [Comp. E, reference compound], the “PXR Max Induction (% of rifampicin)” value at human PXR was 10 % of rifampicin.

Turning to `C[C@@H]1CN(c2nc(-n3ccc(OCCC4(C(F)(F)F)CC4)n3)ccc2C(=O)NS(=O)(=O)c2cccc(F)c2)C(C)(C)C1` [Compound 5, N-(3-Fluorophenyl)sulfonyl-6-[3-[2-[1-(trifluoromethyl)cyclopropyl]ethoxy]pyrazol-1-yl]-2-[(4S)-2,2,4-trimethylpyrrolidin-1-yl]pyridine-3-carboxamide], on F508del-CFTR (setting [1]), the pEC50 is more than 7.00. Further, the pEC50 on F508del-CFTR (setting [2]) was 7.30. Also, in “Rat IV and PO PK studies”, the bioavailability was determined as 50%, the clearance is 9.6 mL/min/kg and the exposure (AUC) came out at 2700 ng·h/mL.

As for `C[C@@H]1CN(c2nc(-n3ccc(OCC4(C(F)(F)F)CCC4)n3)ccc2C(=O)NS(=O)(=O)c2ccccc2)C(C)(C)C1` [Compound 10, N-(Benzenesulfonyl)-6-[3-[[1-(trifluoromethyl)cyclobutyl]methoxy]pyrazol-1-yl]-2-[(4S)-2,2,4-trimethylpyrrolidin-1-yl]pyridine-3-carboxamide], the negative logarithm of the EC50 (pEC50) on F508del-CFTR (setting [1]) is more than 7.00. Moreover, the pEC50 on F508del-CFTR (setting [2]) was 7.40. Also, in the data set “Rat IV and PO PK studies”, the bioavailability is 41%, the clearance stood at 11.2 mL/min/kg and the AUC turned out to be 2200 ng·h/mL.

For `CC1(C)CN(c2nc(-n3ccc(OCC4(C(F)(F)F)CC4)n3)ccc2C(=O)NS(=O)(=O)c2ccccc2)C(C)(C)C1` [Compound 56, N-(Benzenesulfonyl)-2-(2,2,4,4-tetramethylpyrrolidin-1-yl)-6-[3-[[1-(trifluoromethyl)cyclopropyl]methoxy]pyrazol-1-yl]pyridine-3-carboxamide], the pEC50 at F508del-CFTR (setting [1]) is 6.00 to 7.00.

Turning to `C[C@@H]1CN(c2nc(-n3ccc(OCC4(C(F)(F)F)CCC4)n3)ccc2C(=O)NS(=O)(=O)c2cccc(F)c2)C(C)(C)C1` [Compound 59, N-(3-Fluorophenyl)sulfonyl-6-[3-[[1-(trifluoromethyl)cyclobutyl]methoxy]pyrazol-1-yl]-2-[(4S)-2,2,4-trimethylpyrrolidin-1-yl]pyridine-3-carboxamide], the pEC50 at F508del-CFTR (setting [1]) is more than 7.00.

As to `C[C@@H]1CN(c2nc(-n3ccc(OCC4CC45CC5)n3)ccc2C(=O)NS(=O)(=O)c2ccccc2)C(C)(C)C1` (stereo partly drawn) [Compound 60, N-(Benzenesulfonyl)-6-[3-(spiro[2.2]pentan-2-ylmethoxy)pyrazol-1-yl]-2-[(4S)-2,2,4-trimethylpyrrolidin-1-yl]pyridine-3-carboxamide], the negative logarithm of the EC50 (pEC50) at F508del-CFTR (setting [1]) is 6.00 to 7.00.

Turning to `C[C@H]1CC(C)(C)N2c3nc(-n4ccc(OCCC5(C(F)(F)F)CC5)n4)ccc3C(=O)OC12` (stereo partly drawn) [Compound 62, (5S)-3,3,5-trimethyl-12-(3-(2-[1-(trifluoromethyl)cyclopropyl]ethoxy)-1H-pyrazol-1-yl)-7-oxa-2,13-diazatricyclo[7.4.0.02,6]trideca-1(13),9,11-trien-8-one], the pEC50 at F508del-CFTR (setting [1]) was less than 6.00; at F508del-CFTR (Table 7, Compound 1 and metabolites, read-out: CFTRdF508 EC50), less than 4.52.

In the case of `C[C@@H]1CN(c2nc(-n3ccc(OCC45CC(F)(C4)C5)n3)ccc2C(=O)NS(=O)(=O)c2ccccc2)C(C)(C)C1` [Compound 63, N-(Benzenesulfonyl)-6-[3-[(3-fluoro-1-bicyclo[1.1.1]pentanyl)methoxy]pyrazol-1-yl]-2-[(4S)-2,2,4-trimethylpyrrolidin-1-yl]pyridine-3-carboxamide], the pEC50 at F508del-CFTR (setting [1]) was 6.00 to 7.00.

On to `C[C@@H]1CN(c2nc(-n3ccc(O)n3)ccc2C(=O)NS(=O)(=O)c2ccccc2)C(C)(C)C1` [Compound 65, N-(benzenesulfonyl)-6-(3-hydroxypyrazol-1-yl)-2-[(4S)-2,2,4-trimethylpyrrolidin-1-yl]pyridine-3-carboxamide], for which, at F508del-CFTR (setting [1]), the pEC50 is less than 6.00.

The term pEC50 denotes the EC50 on a negative log10 scale, so that one unit is a factor of ten. In general, AUC refers to concentration integrated over time. A lower AUC goes with low exposure.
